Earlier results, collected in PMC2119397 (The Journal of Experimental Medicine, 1992).
Read-outs that look alike come from different tables or passages of the source.

Tested on: DR1

Sequence | DR1 binding (in words) | DR1 binding (in words) (ref Sinigaglia, F., unpublished observation)
TT 830-843: DR1-binding synthetic peptide of tetanus toxoid (QYIKANSKFIGITE; UniProt P04958 830-843, looked up, fragment) | DRl-binding | 
PKYVKQNTLKLAT [HA 307-319] | DR1 binding | 
NALYKMNAVAKAA [NNX 83-91] |  | DR1 binding
